What was measured:
Plasmopara Viticola = experiment: whole plant or invertebrate; format: in vivo; details: foliar, read-out: disease control
[1] = system: Glomerella Lagenarium(Colletotrichum Ladenarium); experiment: Glomerella lagenarium (Colletotrichum lagenarium) / liquid culture (anthracnose); format: cell-based; details: PDB potato dextrose broth, 24° C., 3-4 days after application, read-out: disease control (inhibition of growth, photometrically)
Method: 10 Glomerella Lagenarium(Colletotrichum Ladenarium)/Liquid Culture (Anthracnose) Conidia of the fungus from cryogenic storage were directly mixed into nutrient broth (PDB potato dextrose broth). After placing a DMSO solution of test compound into a 96-well microtiter plate, the nutrient broth containing the fungal spores was added. The test plates were incubated at 24° C. and the inhibition of growth was measured photometrically 3-4 days after application.

Gaeumannomyces Graminis = experiment: Gaeumannomyces graminis / liquid culture (take-all of cereals); format: cell-based; details: PDB potato dextrose broth, 24° C., 4-5 days after application, read-out: disease control (inhibition of growth, photometrically)
Method: 13 Gaeumannomyces Graminis/Liquid Culture (Take-all of Cereals) Mycelial fragments of the fungus from cryogenic storage were directly mixed into nutrient broth (PDB potato dextrose broth). After placing a DMSO solution of test compound into a 96-well microtiter plate, the nutrient broth containing the fungal spores is added. The test plates were incubated at 24° C. and the inhibition of growth was determined photometrically 4-5 days after application.

[2] = system: Monographella Nivalis(Microdochium Nivale); experiment: Monographella nivalis (Microdochium nivale) / liquid culture (foot rot cereals); format: cell-based; details: PDB potato dextrose broth, 24° C., 4-5 days after application, read-out: disease control (inhibition of growth, photometrically)
Method: 14 Monographella Nivalis(Microdochium Nivale)/Liquid Culture (Foot Rot Cereals) Conidia of the fungus from cryogenic storage were directly mixed into nutrient broth (PDB potato dextrose broth). After placing a DMSO solution of test compound into a 96-well microtiter plate, the nutrient broth containing the fungal spores was added. The test plates were incubated at 24° C. and the inhibition of growth was determined photometrically 4-5 days after application.

Pythium Ultimum = experiment: Pythium ultimum / liquid culture (seedling damping off); format: cell-based; details: Globisporangium ultimum, potato dextrose broth, 24° C., 2-3 days after application, read-out: disease control (inhibition of growth, photometrically)
[3] = system: Mycosphaerella Arachidis(Cercospora Arachidicola); experiment: Mycosphaerella arachidis (Cercospora arachidicola) / liquid culture (early leaf spot); format: cell-based; details: PDB potato dextrose broth, 24° C., 4-5 days after application, read-out: disease control (inhibition of growth, photometrically)
Method: 11 Mycosphaerella Arachidis(Cercospora Arachidicola)/Liquid Culture (Early Leaf Spot) Conidia of the fungus from cryogenic storage were directly mixed into nutrient broth (PDB potato dextrose broth). After placing a DMSO solution of test compound into a 96-well microtiter plate, the nutrient broth containing the fungal spores was added. The test plates were incubated at 24° C. and the inhibition of growth was determined photometrically 4-5 days after application.

[4] = system: Mycosphaerella Graminicola(Septoria Tritici); experiment: Mycosphaerella graminicola (Septoria tritici) / liquid culture (Septoria blotch); format: cell-based; details: Zymoseptoria tritici, PDB potato dextrose broth, 24° C., 4-5 days after application, read-out: disease control (inhibition of growth, photometrically)
Method: 12 Mycosphaerella Graminicola(Septoria Tritici)/Liquid Culture (Septoria Blotch) Conidia of the fungus from cryogenic storage were directly mixed into nutrient broth (PDB potato dextrose broth). After placing a DMSO solution of test compound into a 96-well microtiter plate, the nutrient broth containing the fungal spores was added. The test plates were incubated at 24° C. and the inhibition of growth was determined photometrically 4-5 days after application.

Sclerotinia Sclerotiorum = experiment: Sclerotinia sclerotiorum / liquid culture (cottony rot); format: cell-based; details: PDB potato dextrose broth, 24° C., 3-4 days after application, read-out: disease control (inhibition of growth, visually)
Method: 17 Sclerotinia Sclerotiorum/Liquid Culture (Cottony Rot) Mycelia fragments of a newly grown liquid culture of the fungus were directly mixed into nutrient broth (PDB potato dextrose broth). After placing a (DMSO) solution of the test compounds into a microtiter plate (96-well format) the nutrient broth containing the fungal material was added. The test plates were incubated at 24° C. and the inhibition of growth was determined visually 3-4 days after application.

OB1OCc2cc(Cl)c(-c3cc4ccccc4o3)cc21 [Compound 37]
≥ 80%: pest or weed control at 200 ppm (Plasmopara Viticola) | inhibition at 20 ppm [1] | inhibition at 20 ppm (Gaeumannomyces Graminis) | inhibition at 20 ppm [2]

CCn1cc(-c2cc3c(cc2Cl)COB3O)cn1 [Compound 71]
≥ 80%: pest or weed control at 200 ppm (Plasmopara Viticola) | inhibition at 20 ppm (Pythium Ultimum) | inhibition at 20 ppm [3] | inhibition at 20 ppm [2]

N#Cc1ccc(-c2cc3c(cc2Cl)COB3O)o1 [Compound 41]
≥ 80%: pest or weed control at 200 ppm (Plasmopara Viticola) | inhibition at 20 ppm (Pythium Ultimum) | inhibition at 20 ppm [1] | inhibition at 20 ppm [4] | inhibition at 20 ppm (Gaeumannomyces Graminis) | inhibition at 20 ppm [2]

COc1ncc(-c2cc3c(cc2Cl)COB3O)c(OC)n1 [Compound 69]
≥ 80%: inhibition at 20 ppm (Pythium Ultimum)

OB1OCc2cc(F)c(-c3cnccc3C(F)(F)F)cc21 [Compound 78]
≥ 80%: pest or weed control at 200 ppm (Plasmopara Viticola) | inhibition at 20 ppm (Pythium Ultimum)

CCn1cc(-c2cc3c(cc2F)COB3O)cn1 [Compound 60]
≥ 80%: pest or weed control at 200 ppm (Plasmopara Viticola) | inhibition at 20 ppm (Pythium Ultimum) | inhibition at 20 ppm [1] | inhibition at 20 ppm [3] | inhibition at 20 ppm (Gaeumannomyces Graminis) | inhibition at 20 ppm [2]

OB1OCc2cc(F)c(-c3ccc(N4CCOCC4)nc3)cc21 [Compound 59]
≥ 80%: inhibition at 20 ppm (Pythium Ultimum)

OB1OCc2cc(F)c(-c3cncc(C(F)(F)F)c3)cc21 [Compound 82]
≥ 80%: inhibition at 20 ppm (Pythium Ultimum) | inhibition at 20 ppm [1] | inhibition at 20 ppm [3] | inhibition at 20 ppm [4] | inhibition at 20 ppm (Gaeumannomyces Graminis) | inhibition at 20 ppm [2] | inhibition at 20 ppm (Sclerotinia Sclerotiorum)

OB1OCc2cc(Cl)c(-c3cc4ccccc4s3)cc21 [Compound 47]
≥ 80%: pest or weed control at 200 ppm (Plasmopara Viticola) | inhibition at 20 ppm (Pythium Ultimum) | inhibition at 20 ppm [3] | inhibition at 20 ppm [4] | inhibition at 20 ppm (Gaeumannomyces Graminis) | inhibition at 20 ppm [2]

OB1OCc2cc(Cl)c(-c3ccc(N4CCOCC4)nc3)cc21 [Compound 70]
≥ 80%: inhibition at 20 ppm (Pythium Ultimum) | inhibition at 20 ppm [3] | inhibition at 20 ppm [4] | inhibition at 20 ppm [2]

N#Cc1csc(-c2cc3c(cc2Cl)COB3O)c1 [Compound 43]
≥ 80%: pest or weed control at 200 ppm (Plasmopara Viticola) | inhibition at 20 ppm (Pythium Ultimum) | inhibition at 20 ppm [1] | inhibition at 20 ppm (Gaeumannomyces Graminis) | inhibition at 20 ppm [2]

Cn1nccc1-c1cc2c(cc1Cl)COB2O [Compound 9]
≥ 80%: pest or weed control at 200 ppm (Plasmopara Viticola) | inhibition at 20 ppm (Pythium Ultimum)

Cn1cc(-c2cc3c(cc2Cl)COB3O)cn1 [Compound 86]
≥ 80%: inhibition at 20 ppm (Pythium Ultimum) | inhibition at 20 ppm [3] | inhibition at 20 ppm (Gaeumannomyces Graminis) | inhibition at 20 ppm [2]

OB1OCc2cc(Cl)c(-c3cnccc3C(F)(F)F)cc21 [Compound 87]
≥ 80%: pest or weed control at 200 ppm (Plasmopara Viticola) | inhibition at 20 ppm (Pythium Ultimum) | inhibition at 20 ppm [2]

Cc1nn(C)c(C)c1-c1cc2c(cc1F)COB2O [Compound 55]
≥ 80%: pest or weed control at 200 ppm (Plasmopara Viticola) | inhibition at 20 ppm (Pythium Ultimum)

COc1ncc(-c2cc3c(cc2F)COB3O)c(OC)n1 [Compound 58]
≥ 80%: inhibition at 20 ppm (Pythium Ultimum) | inhibition at 20 ppm [2]

Cn1cc(-c2cc3c(cc2F)COB3O)cn1 [Compound 77]
≥ 80%: inhibition at 20 ppm (Pythium Ultimum) | inhibition at 20 ppm [3] | inhibition at 20 ppm (Gaeumannomyces Graminis)

COc1ccc(-c2cc3c(cc2Cl)COB3O)cn1 [Compound 85]
≥ 80%: inhibition at 20 ppm (Pythium Ultimum) | inhibition at 20 ppm [2]

Cn1nc(-c2cc3c(cc2F)COB3O)c2ccccc21 [Compound 48]
≥ 80%: pest or weed control at 200 ppm (Plasmopara Viticola) | inhibition at 20 ppm (Pythium Ultimum) | inhibition at 20 ppm (Gaeumannomyces Graminis) | inhibition at 20 ppm [2]

CCOc1ccc(-c2cc3c(cc2F)COB3O)cn1 [Compound 64]
≥ 80%: pest or weed control at 200 ppm (Plasmopara Viticola) | inhibition at 20 ppm (Pythium Ultimum) | inhibition at 20 ppm [2]

Cc1cc(-c2cc3c(cc2F)COB3O)c(C)s1 [Compound 80]
≥ 80%: inhibition at 20 ppm (Pythium Ultimum) | inhibition at 20 ppm [1] | inhibition at 20 ppm [3] | inhibition at 20 ppm [2]

CON=Cc1ccc(-c2cc3c(cc2Cl)COB3O)o1 (racemic) [Compound 23, 1-[5-(5-chloro-1-hydroxy-3H-2,1-benzoxaborol-6-yl)-2-furyl]-N-methoxy-methanimine]
≥ 80%: inhibition at 20 ppm (Pythium Ultimum) | inhibition at 20 ppm [1] | inhibition at 20 ppm [3] | inhibition at 20 ppm [4] | inhibition at 20 ppm (Gaeumannomyces Graminis) | inhibition at 20 ppm [2]

OB1OCc2cc(Cl)c(-c3ccncc3)cc21 [Compound 7]
≥ 80%: pest or weed control at 200 ppm (Plasmopara Viticola) | inhibition at 20 ppm (Pythium Ultimum)

OB1OCc2cc(F)c(-c3cc4ccccc4[nH]3)cc21 [Compound 61]
≥ 80%: pest or weed control at 200 ppm (Plasmopara Viticola) | inhibition at 20 ppm (Pythium Ultimum) | inhibition at 20 ppm [3] | inhibition at 20 ppm [4] | inhibition at 20 ppm (Gaeumannomyces Graminis) | inhibition at 20 ppm [2] | inhibition at 20 ppm (Sclerotinia Sclerotiorum)

Cc1cscc1-c1cc2c(cc1Cl)COB2O [Compound 53]
≥ 80%: inhibition at 20 ppm (Pythium Ultimum) | inhibition at 20 ppm [1] | inhibition at 20 ppm [3] | inhibition at 20 ppm (Gaeumannomyces Graminis) | inhibition at 20 ppm [2]

OB1OCc2cc(Cl)c(-c3ccncc3Cl)cc21 [Compound 89]
≥ 80%: pest or weed control at 200 ppm (Plasmopara Viticola) | inhibition at 20 ppm (Pythium Ultimum) | inhibition at 20 ppm [1] | inhibition at 20 ppm [3] | inhibition at 20 ppm [4] | inhibition at 20 ppm [2]

Cc1nc(Nc2ccccc2)nc(C2CC2)c1-c1cc2c(cc1Cl)COB2O [Compound 24]
≥ 80%: inhibition at 20 ppm [2]

COc1ccc(-c2cc3c(cc2F)COB3O)cn1 [Compound 76]
≥ 80%: inhibition at 20 ppm (Pythium Ultimum) | inhibition at 20 ppm [2]

OB1OCc2cc(Cl)c(-c3cc(Br)cs3)cc21 [Compound 46]
≥ 80%: inhibition at 20 ppm (Pythium Ultimum) | inhibition at 20 ppm [1] | inhibition at 20 ppm [4] | inhibition at 20 ppm (Gaeumannomyces Graminis) | inhibition at 20 ppm [2]

OB1OCc2cc(Cl)c(-c3cncnc3O)cc21 [Compound 19]
≥ 80%: inhibition at 20 ppm (Pythium Ultimum)

Source: US10314308B2, “Microbiocidal benzoxaboroles” (SYNGENTA PARTICIPATIONS AG, priority 2015, dated 2019)
